Data from patent US20090258069A1, “Delivery of LFA-1 antagonists to the gastrointestinal system” (priority 2008, published 2009).
Where “and” joins values, the source holds several entries; their conditions need not be identical. Equal values may be shown once. Read-outs that look alike come from different tables or passages of the source.

What was measured:
[1] = system: human mononuclear cells (PBMC) stimulated with staphylococcal enterotoxin B (SEB); test: cells; format: cell-based
[2] = system: Keratoconjunctivitis Sicca (KCS); test: Canine keratoconjunctivitis sicca (KCS) study, Schirmer tear test and conjunctival biopsy; format: in vivo, dog; conditions: for Schirmer Tear Test Results (OD), Mean: Dog #1 not included; for Schirmer Tear Test Results (OS), Mean: Dog #7 not included; for Schirmer Tear Test Results (OS), individual dogs: left eye; for Schirmer Tear Test Results (OD), individual dogs: right eye
Text: If dogs had been treated with topical CsA or tacrolimus in the previous six months, they were not enrolled. […] Animals were subjected to an ocular examination once during the initial visit and during five visits over sixteen weeks of the study (Weeks, 2, 4, 8, 12 and 16). The last OE was approximately four weeks after the last dose of Compound 12 and after one month of CsA treatment. The adnexa and anterior portions of both eyes were examined using an indirect opthalmoscope. The eyes were dilated with a mydriatic when applicable, to allow evaluation of the lens and fundus, including the retina. An evaluation using a modified McDonald-Shaddock scoring system was performed in conjunction with the slitlamp ocular examinations at each interval. […] One strip of STT paper was used for each eye for each interval. […] The length, in mm, of wetting below the notch of the paper was recorded. Conjunctival biopsies were taken at the initial (pretreatment) visit and the Week 12 visit. The second biopsy was taken more lateral (approx. 1 mm) to the initial biopsy. Following appropriate preparation a small conjunctival biopsy was taken from the ventral fornix of each eye.

[3] = Phase 1 clinical trial, tear PK; format: in vivo, human
Text: A 48-hour post-dose sample was obtained following Day 1, 14, and 27.

[4] = system: rats; test: Respiratory function in rats, single IV bolus, head-out plethysmograph; format: in vivo, rat; conditions: any dose
[5] = system: Chinese hamster ovary (CHO) cells; test: In vitro chromosomal aberration assay in CHO cells; format: cell-based; conditions: with and without metabolic activation, except single toxic dose 3500 μg/mL, 3-hour
Text: The biological relevance of this response is equivocal due to cytotoxicity.

[6] = system: rabbits; test: Single dose ocular tolerance in rabbits; format: in vivo, rabbit; conditions: (10%)
[7] = Pilot ocular tolerance of topically administered Compound 12 in dogs-PK; format: in vivo, dog; conditions: dog, vitreous fluid, topical; TID for three days with 3.5 mg/eye (10%); ranged from BLOQ; read-out: levels in the vitreous fluid
[8] = system: dogs; test: as above; format: in vivo, dog; conditions: up to 10% strength at 3 doses/day
[9] = Solubility studies; format: physicochemical
[10] = Pilot mini-pig dermal study; format: in vivo; conditions: minipig, plasma, topical, 10 mg/cm^2 of 1% formulation over approximately 50 cm^2; all groups; below LLOQ; read-out: Plasma levels
Text: (§1) One pig/dose formulation was used. In-life PK analysis was completed.

[11] = system: mini-pigs; test: Pilot mini-pig dermal study; format: in vivo; conditions: DMSO, gel, ointment, lotion at 1%; TID 7 days, 10 mg/cm^2 on about 50 cm^2
Text: as §1

[12] = in vivo
[13] = in vivo; conditions: dog, iv
[14] = in vivo; conditions: rabbit, topical or ocular
[15] = Tear PK after a single topical ocular instillation in rabbits
[16] = system: rabbits; test: 13-week ocular toxicity study in rabbits with 4-week recovery (with TK); conditions: (3%)
[17] = Plasma PK after a single topical ocular instillation (dogs and rabbits)
[18] = 13-week IV toxicity study in rats with 4-week recovery (with plasma exposure); conditions: rat; for AUC: AUC0-n
[19] = Week 1, 1% solution (Formulation 15) 0.35 mg/eye TID, one grid row per dog
[20] = Week 16, Compound 12 stopped at week 12, then 4 weeks CsA 0.2% ointment TID
[21] = Weeks 1-12 of Compound 12 administration
[22] = rabbit, in vivo, topical or ocular, 1.05 mg
[23] = single instillation of 0.1, 1.0 or 3.0% dose strength
[24] = in vivo, topical or ocular, 1.05 mg
[25] = 3 mg/kg, 3 mg/kg daily IV bolus, Day 1
[26] = 3 mg/kg, 3 mg/kg daily IV bolus, Week 13
[27] = 10 mg/kg, 10 mg/kg daily IV bolus, Day 1
[28] = 10 mg/kg, 10 mg/kg daily IV bolus, Week 13
[29] = 30 mg/kg, 30 mg/kg daily IV bolus, Day 1
[30] = 30 mg/kg, 30 mg/kg daily IV bolus, Week 13

In the case of `CS(=O)(=O)c1cccc(C[C@H](NC(=O)c2c(Cl)cc3c(c2Cl)CCN(C(=O)c2ccc4ccoc4c2)C3)C(=O)O)c1` [Compound 12], the EC50 ([1]; read-out: EC50 Cytokine Release GM-CSF) is reported as 0.545 µM, the EC50 ([1]; read-out: EC50 Cytokine Release IFNγ) is reported as 0.0016 µM and the EC50 ([1]; read-out: EC50 Cytokine Release IL-1α) is reported as 0.24 µM. It also gave an EC50 ([1]; read-out: EC50 Cytokine Release IL-1β) of 0.36 µM, an EC50 ([1]; read-out: EC50 Cytokine Release IL-2) of 0.0018 µM and an EC50 ([1]; read-out: EC50 Cytokine Release IL-3) of 52.2 µM. The EC50 ([1]; read-out: EC50 Cytokine Release IL-4) was 0.143 µM, the EC50 ([1]; read-out: EC50 Cytokine Release IL-5) was 0.11 µM and the EC50 ([1]; read-out: EC50 Cytokine Release IL-6) was 43.5 µM. The EC50 ([1]; read-out: EC50 Cytokine Release IL-10) was 0.147 µM, the EC50 ([1]; read-out: EC50 Cytokine Release IL-12p40) was greater than 1000 µM and the EC50 ([1]; read-out: EC50 Cytokine Release IL-13) was 0.36 µM. It also gave an EC50 ([1]; read-out: EC50 Cytokine Release IP-10) of 1.16 µM, an EC50 ([1]; read-out: EC50 Cytokine Release MCP-1) of 0.005 µM and an EC50 ([1]; read-out: EC50 Cytokine Release MIP-1α) of 0.02 µM. For the same compound, the EC50 ([1]; read-out: EC50 Cytokine Release TNF-α) was 0.076 µM, the IC50 ([1]; read-out: IC50 values in in vitro cell assays (cell attachment and SEB IL-2 release)) was 0.002 µM and the “Schirmer Tear Test Results (OD), Mean” value ([2]; Week 1) was 5.5 mm. The “Schirmer Tear Test Results (OS), Mean” value ([2]; Week 1) was 4.2 mm, the “Schirmer Tear Test Results (OS), individual dogs” value [2, 19] was 9 mm (2×) and 18 mm and 0 mm (3×) and 7 mm and the “Schirmer Tear Test Results (OD), individual dogs” value [2, 19] was 8 mm (2×) and 6 mm (2×) and 15 mm and 0 mm and 5 mm. The “Schirmer Tear Test Results (OD), Mean” value ([2]; Week 2) was 7.8 mm, the “Schirmer Tear Test Results (OS), Mean” value ([2]; Week 2) was 4.8 mm and the “Schirmer Tear Test Results (OS), individual dogs” value ([2]; Week 2, 1% solution TID) was 4 mm and 0 mm (2×) and 14 mm and 3 mm and 8 mm. For the same compound, the “Schirmer Tear Test Results (OD), individual dogs” value ([2]; Week 2, 1% solution TID) was 10 mm and 2 mm (2×) and 18 mm and 11 mm (3×), the “Schirmer Tear Test Results (OD), Mean” value ([2]; Week 4) was 7.0 mm and the “Schirmer Tear Test Results (OS), Mean” value ([2]; Week 4) was 6.7 mm. The “Schirmer Tear Test Results (OS), individual dogs” value ([2]; Week 4, 1% solution TID) was 14 mm (2×) and 0 mm (2×) and 7 mm and 5 mm, the “Schirmer Tear Test Results (OD), individual dogs” value ([2]; Week 4, 1% solution TID) was 15 mm and 2 mm and 12 mm and 0 mm and 5 mm and 10 mm (2×) and the “Schirmer Tear Test Results (OD), Mean” value ([2]; Week 8) was 8.5 mm. The “Schirmer Tear Test Results (OS), Mean” value ([2]; Week 8) was 6.5 mm, the “Schirmer Tear Test Results (OS), individual dogs” value ([2]; Week 8, 1% solution TID) was 8 mm (2×) and 19 mm and 0 mm and 2 mm and 17 mm and 6 mm and the “Schirmer Tear Test Results (OD), individual dogs” value ([2]; Week 8, 1% solution TID) was 17 mm and 1 mm and 16 mm and 8 mm and 7 mm (2×) and 11 mm. The “Schirmer Tear Test Results (OD), Mean” value ([2]; Week 12) was 8.8 mm, the “Schirmer Tear Test Results (OS), Mean” value ([2]; Week 12) was 8.7 mm and the “Schirmer Tear Test Results (OS), individual dogs” value ([2]; Week 12, 1% solution TID) was 8 mm (2×) and 18 mm and 3 mm and 7 mm and 15 mm and 4 mm. The “Schirmer Tear Test Results (OD), individual dogs” value ([2]; Week 12, 1% solution TID) was 16 mm and 0 mm and 13 mm (2×) and 8 mm and 7 mm and 9 mm, the “Schirmer Tear Test Results (OS), Mean” value ([2]; Week 16 (after 4 weeks CsA)) was 11.0 mm and the “Schirmer Tear Test Results (OS), individual dogs” value [2, 20] was 17 mm and 18 mm and 3 mm and 5 mm and 16 mm and 7 mm and 19 mm. For the same compound, the “Schirmer Tear Test Results (OD), individual dogs” value [2, 20] was 18 mm and 12 mm (2×) and 8 mm (3×) and 22** mm, the “Maximum-Minimum Analysis, maximal change in STT, OD, per dog” value [2, 21] was 3 mm and 8 mm (3×) and −4 mm and 5 mm and the “Maximum-Minimum Analysis, maximal change in STT, OS, per dog” value [2, 21] was 7 mm (2×) and 11 mm and 3 mm and 10 mm and 6 mm. For the same compound, the “Histopathological evaluation of conjunctival biopsies before and after treatment” value ([2]; pretreatment vs Week 12) was “attenuation of lymphocyte accumulation”, the “Schirmer test scores over pretreatment” value ([2]; week 12) was “Significant improvement” and the “accumulation in tear with multiple ocular dose administration” value ([3]; BID and TID) was “no obvious evidence of accumulation”. The “tear AUC and Cmax values” ([3]; dosing day 1, maintained throughout the trial) was “Dose related increases”, the “respiratory function (tidal volume, respiration rate, minute volume)” value [4] was “No adverse changes” and the “structural chromosomal aberrations in CHO cells” value [5] was “negative”. For the same compound, the NOAEL [6] was 3.5 mg/eye/3× per day, the concentration at 3 days [7] was no more than 18 ng/mL and the “ocular safety and tolerability” value [8] was “safe and well tolerated”. The solubility ([9]; ethanol/glycol/transcutol solution) was 10 % (w/w), the solubility ([9]; water/glycol/transcutol solution) was 2 % (w/w) and the concentration at 7 days [10] was less than 0.5 ng/mL. The “toxicity, dermal formulations” value [11] was “No toxicity”, the “ocular dose absorbed into the systemic circulation” value [12] was 6.9-32% and the NOAEL at 4 week [13] was 10 mg/kg. For the same compound, the AUC ([14]; 0.105 mg) was 18900 ng·h/mL, the Cmax ([14]; 0.105 mg) was 34000 ng/mL and the AUC ([14]; 0.35 mg) was 18900 ng·h/mL. It also gave a Cmax ([14]; 0.35 mg) of 21500 ng/mL, an AUC [15, 22] of 183000 ng·h/mL and a Cmax [15, 22] of 314000 ng/mL. For the same compound, the “time of return of tear concentration to baseline” value [15, 23] was no more than 4 h, the “time to maximal mean tear concentration” value [15, 23] was no more than 30 min and the NOAEL [16] was 1.05 mg/eye/3× per day. For the same compound, the AUC [17, 24] was 22.9 ± 10.1 ng·h/mL, the Cmax [17, 24] was 38.9 ± 19.7 ng/mL and the “time of decline of plasma concentration to baseline levels” value ([17]; topical ocular instillation) was “about 4 hours”. For the same compound, the “time of maximum plasma concentration post-dose” value ([17]; topical ocular instillation) was “about 0.25 hrs”, the AUC [18, 25] was 148 ng·h/mL and the AUC [18, 26] was 241 ng·h/mL. For the same compound, the Cmax [18, 25] was 305 ng/mL, the Cmax [18, 26] was 378 ng/mL and the AUC [18, 27] was 536 ng·h/mL. It also gave an AUC [18, 28] of 907 ng·h/mL, a Cmax [18, 27] of 1050 ng/mL and a Cmax [18, 28] of 1690 ng/mL. It also gave an AUC [18, 29] of 2350 ng·h/mL, an AUC [18, 30] of 7470 ng·h/mL and a Cmax [18, 29] of 5120 ng/mL. The Cmax [18, 30] was 16900 ng/mL.
